Data: US20150023877A1, “METHODS OF PARKINSONS DISEASE DIAGNOSIS AND MONITORING TREATMENT” (The Board of Trustees of the Leland Stanford Junior …, priority 2013, published 2015)
Several values for one entry are separate records, joined by “and”; a condition that tells them apart may be missing. Equal values may be shown once. Read-outs that look alike come from different tables or passages of the source.

Legend:
[1] = tested on: implantation site (striatum); conditions: cited from earlier work
[2] = Dynamic PET imaging in normal rat brain; format: in vivo
Method: (§1) Small animal PET/CT imaging was performed on a Siemens Inveon small-animal multimodality PET/CT system (Preclinical Solutions; Siemens Healthcare Molecular Imaging, Knoxville, Tenn.). For each rat, ^18F-P3BZA (7.4 MBq, 200 μCi) was administrated through tail vein.
To assess the in vivo kinetics of ^18F-P3BZA in normal rat brain, dynamic PET imaging (10×1 minute, 10×2 minute, 2×5 minute, 3×10 minute; total of 25 frames) was initiated immediately after administration of the probe and terminated 70 minute later on normal rats (n=4).
CT scan (632 slices at 206 μm) was performed immediately after PET imaging for both photon attenuation correction and image co-registration with PET image data for anatomical information. PET Images were reconstructed with a 2-dimensional ordered-subsets expectation maximization algorithm (OSEM 2D). ROIs were drawn in bilateral striatum using the Inveon Research Workspace software. The average radioactivity concentration in the ROIs was obtained from the mean pixel values within the ROIs volume. […] The results were then divided by the injected dose to obtain an image ROI-derived % ID/g, and the TAC was then calculated and obtained.

[3] = tested on: gelatin microcarrier-bound pRPE cells; test: Ex vivo autoradiography of rat brain sections; format: in vivo; conditions: after static PET/CT
Excerpt: The sacrificed rat brains were removed and embedded in optimum cutting temperature (O.C.T.) compound (Tissue-Tek, Sakura, USA). Subsequently, thick axial blocks (12 μm) were cut using a cryostat microtome HM500 (Microm, HM 500 M, Heidelberg, Germany). The sections were mounted on microscope slides (Fisherbrand Superfrost Plus microscope slides, Fisherbrand Superfrost Plus Microscope Slides, Vernon Hills, Ill., USA). The representative coronal sections through the striatum (including visible injection sites) were used for autoradiography immediately or preserved in −80° C. for other postmortem analysis.
After static PET/CT imaging, frozen brain sections were prepared immediately for autoradiography. The sections were air-dried for 10 minute, and then exposed to a radioactivity sensitive storage phosphor screen (Perkin-Elmer, USA) for 24 h at 4° C. The imaging plates were analyzed using a Typhoon 9410 variable mode imager (Amersham Biosciences, Salt Lake City, Utah, USA), and the image data were visualized and processed by Image J (image processing and analysis software in Java).

[4] = tested on: gelatin microcarrier-bound ARPE-19 cells (ARPE-19-GMs); test: Static PET/CT of intrastriatal implanted ARPE-19-GMs, 2 days after implantation; format: in vivo, rat
Method: (§2) Female Wistar rats (Charles Rivers Laboratory, Wilmington, Mass., USA) weighing 176-200 g were used in this study. All animal work was conducted in accordance with the Administrative Panel on Laboratory Animal Care at Stanford University. The implantation procedure was performed following the surgical procedures described in a previous report^36. Animals were anesthetized using isofluorane and were implanted at left striatum with RPE-GMs using the following (flat-skull) coordinates: anterior posterior (AP) −0.4; medial lateral (ML) ±3.5; dorsal ventral (DV) −5.0. The control GMs-alone were implanted on the contralateral side of the striatum and performed using the same procedure. Before the implantation procedure, solutions contained RPE cells (melanotic pRPE or amelanotic ARPE-19, 12,000˜15,000 cells in 10 μL) were drawn into a sterile 50 μL Hamilton syringe (Hamilton Company, Reno, Nev.).
(§3) Small animal PET/CT imaging was performed on a Siemens Inveon small-animal multimodality PET/CT system (Preclinical Solutions; Siemens Healthcare Molecular Imaging, Knoxville, Tenn.). For each rat, ^18F-P3BZA (7.4 MBq, 200 μCi) was administrated through tail vein. […]

B16F10 = conditions: cited from earlier work
ARPE-19 cells = test: In vitro cell uptake of ^18F-P3BZA in control ARPE-19 cells; format: cell-based, human
Method: (§4) pRPE (generation 3, 5×10^5) or control ARPE-19 cells were plated in a 12-well plate pretreated with or without L-tyrosine (2 mM) for 24 h. They were incubated with 74 kBq (2 μCi)/well of ^18F-P3BZA at 37° C. for 15, 30, 60, and 120 minute. The cells were washed three times with chilled PBS and lysed with 500 μL of 0.1 M NaOH. The cell lysates were then collected and the radioactivity of the lysates was measured with a γ counter (Perkin-Elmer, MA, USA). The cell uptake was expressed as the percentage of total applied radioactivity. All experiments were performed with triplicate samples. Similarly, uptake of ^18F-P3BZA at 30 minute incubation was determined in pRPE cells at different passages (pRPE-P3, pRPE-P5 and pRPE-P8) and control ARPE19 cells, with or without L-tyrosine pretreatment.

MCF-7 cells = conditions: cited from earlier work
[5] = tested on: gelatin microcarrier-bound pRPE cells (pRPE-GMs); test: Static PET/CT of intrastriatal implanted pRPE-GMs, 2 days after implantation; format: in vivo, rat
Method: as §2, §3

pRPE cells [6] = test: In vitro cell uptake of ^18F-P3BZA in pRPE cells; format: cell-based; conditions: for uptake of ^18F-P3BZA in pRPE cells: without L-tyrosine
Method: as §4

pRPE-GMs = test: Longitudinal PET/CT after implantation of pRPE-GMs; format: in vivo, rat
Method: as §1
To evaluate the potential of ^18F-P3BZA for monitoring the survival and function of RPE cells implanted, longitudinal PET/CT scans were acquired at day 2, 9 and 16 after cell implantation of pRPE-GMs in the left and GMs as control in right striatum in normal rats (n=12). PET/CT imaging started at 1 h after tail vein injection of ^18F-P3BZA Immediately after PET/CT scan at each time point (day 2, 9 and 16), four rats were sacrificed and the brain slices were prepared for immunohistochemistry and Fontana-Masson staining.

MCF-7-TYR = conditions: cited from earlier work
pRPE cells [7] = test: Melanin quantification analysis in pRPE cells; format: cell-based, porcine; conditions: 2 mM L-tyrosine pre-treatment; from 14.34±0.48 untreated
Method: In vitro measurement of melanin content was performed for pRPE and ARPE-19 cells in parallel with the ^18F-P3BZA cell uptake assay according to methods reported previously with slight modifications^35. The cells were harvested after pretreatment with or without 2 mM L-tyrosine for 24 h and washed with PBS, then they were incubated overnight in 500 μL of 1 N NaOH at room temperature. The solution was pipetted repeatedly to homogenize the extracts. The concentration of total protein was determined using a microBCA protein assay kit (Pierce Biotechnology) and then the concentration of samples was adjusted to 0.4 μg/μL. Extracts (100 μL) were added into 96-well plates in triplicate. The relative melanin content of samples was determined by measuring their absorbance at 405 nm using a plate reader (TECAN, Research Triangle Park, N.C.). Results were expressed as absorbance of 405 nm per mg protein (A 405 nm/mg protein).

[8] = after implantation of the RPE cells
[9] = before implantation of the RPE cells

In the case of `N[C@@H](Cc1cc(O)c(O)cc1[18F])C(=O)O` [^18F-fluoro-L-DOPA], the “implantation site (striatum) to cortex uptake ratio” value [1, 8] is listed as 1.48±0.07 and the “implantation site (striatum) to cortex uptake ratio” value [1, 9] is listed as 1.35±0.10.
For `CCN1CCC[C@H]1CNC(=O)c1c(O)c(Cl)cc(Cl)c1O[11CH3]` (racemic) [^11C-raclopride], the “implantation site (striatum) to cortex uptake ratio” value [1, 8] is listed as 2.44±0.67 and the “implantation site (striatum) to cortex uptake ratio” value [1, 9] is listed as 2.41±0.74.
With `CCN(CC)CCNC(=O)c1ccc([18F])cn1` [^18F-P3BZA, N-(2-(diethylamino)ethyl)-^18F-5-fluoropicolinamide] the “uptake in rat brain” value ([2]; 2 min after injection (peak)) was 7.61±0.30 % ID/g, the “uptake in rat brain” value ([2]; 28 min after injection) was 3.54±0.21 % ID/g and the “uptake in rat brain” value ([2]; 60 min after injection) was 1.04±0.37 % ID/g. For the same compound, the blood-brain barrier passage ([2]; PET images, normal rat) was “could rapidly cross the blood-brain barrier”, the “autoradiography signal of pRPE-GMs transplant site vs ARPE-19-GMs or GMs alone sites” value [3] was “significantly higher” and the “ARPE-19-GMs to gelatin microcarriers uptake ratio” value [4] was 1.21±0.36. The cell uptake (B16F10; 0.5 h incubation) was 6.85±0.08%, the cell uptake (B16F10; 1 h incubation) was 8.55±0.24% and the “uptake in control ARPE-19 cells at each time point” value (ARPE-19 cells; 15, 30, 60, 120 minutes) was “remained low”. The “uptake of ^18F-P3BZA in control ARPE-19 cells” value (ARPE-19 cells; 30 minute incubation) was 1.31%±0.15 % of applied activity, the “uptake in ARPE-19 cells before and after tyrosine treatment” value (ARPE-19 cells; with vs without L-tyrosine) was “no difference” and the cell uptake (MCF-7 cells; 0.5 h incubation) was 0.25±0.05%. The cell uptake (MCF-7 cells; 1 h incubation) was 0.32±0.07%, the “pRPE-GMs to adjacent normal striatum uptake ratio” value [5] was 3.19±0.53 and the “pRPE-GMs to control gelatin microcarriers uptake ratio” value [5] was 3.05±0.57. The “uptake of ^18F-P3BZA in L-tyrosine treated pRPE cells” value (pRPE cells [6]; 2 mM L-tyrosine pre-treatment, 30 minute incubation) was 39.07±1.65%, the “uptake of ^18F-P3BZA in pRPE cells” value (pRPE cells [6]; 60 minutes incubation) was 9.09%±0.31 % of applied activity and the “uptake of ^18F-P3BZA in pRPE cells” value (pRPE cells [6]; 120 minutes incubation) was 8.61%±0.47 % of applied activity. For the same compound, the “fold uptake in passage 3 pRPE cells vs control amelanotic ARPE-19 cells” value (pRPE cells [6]; in vitro) was 9 fold, the “increase in uptake in pRPE cells after tyrosine treatment vs nontreatment groups” value (pRPE cells [6]; multiple time points, FIG. 2A) was “three- to fourfold higher” and the “uptake of ^18F-P3BZA in pRPE cells” value (pRPE cells [6]; pRPE passage 3, 30 minutes incubation) was 10.72±0.38 % of applied activity and 10.72%±0.38 % of applied activity and 10.71%±0.38 % of applied activity. For the same compound, the “increase of uptake after tyrosine treatment” value (shortened to “increase of uptake”) (pRPE cells [6]; pRPE-P3) was 48.8%, the “decreasing rate of cell uptake per passage” value (pRPE cells [6]; pRPE-P3, P5, P8) was −1.45 % of applied activity per passage and the “increase of uptake” value (pRPE cells [6]; pRPE-P5) was 37.8%. For the same compound, the “increase of uptake” value (pRPE cells [6]; pRPE-P8) was 31.9%, the “uptake of ^18F-P3BZA in pRPE-P5 cells” value (pRPE cells [6]; passage 5, 30 minute incubation) was 6.25%±0.59 % of applied activity and the “uptake of ^18F-P3BZA in pRPE-P8 cells” value (pRPE cells [6]; passage 8, 30 minute incubation) was 3.29%±0.15 % of applied activity. For the same compound, the “uptake in pRPE-GMs” value (pRPE-GMs; 2 days post-implantation) was 3.39±0.18 % ID/g, the “uptake in pRPE-GMs” value (pRPE-GMs; 9 days post-implantation) was 2.49±0.41 % ID/g and the “uptake in pRPE-GMs” value (pRPE-GMs; 16 days post-implantation) was 1.20±0.13 % ID/g. For the same compound, the cell uptake (MCF-7-TYR; 0.5 h incubation) was 5.57±0.31% and the cell uptake (MCF-7-TYR; 1 h incubation) was 7.14±0.18%.
With `N[C@@H](Cc1ccc(O)cc1)C(=O)O` [L-tyrosine] the “melanin content in pRPE cells (P3)” value (pRPE cells [7]) was 21.34±1.73 A 405 per mg protein.
